Reference: PMC7417534, “Cytochrome P450 inhibition potential and initial genotoxic evaluation of 14-O-[(4,6-diaminopyrimidine-2-yl)thioacetyl] mutilin” (Scientific Reports, 2020)
Where two headings read alike, the source gives them in different places.

Assays:
[1] = system: S. typhimurium TA97; test: Ames test, strain TA97; type: cell-based, Salmonella typhimurium; settings: − S9; positive control, 10 μg/plate
Source text: (§1) S. typhimurium strains TA97, TA98, TA100, TA102 and TA1535 were stored and maintained as provided in the standard protocol. Each of the strains was checked for their genetic integrity prior to the experiment, and tested for biotin dependence, histidine dependence, biotin and histidine dependence, rfa marker (crystal violet) and presence of the plasmid pKM101 (ampicillin resistance) or pAQ1 (tetracycline resistance). Different strains were used to identify different types of mutations.
(§2) The test was carried out at five different concentrations of DPTM. […] Then 1 mL solution was diluted with distilled water by two fold. […] The negative control used in this experiment was 1 mL DMSO which was directly incorporated into 9 mL melted top agar.
(§3) The Ames test of DPTM was conducted as described in the literatures[42],[43] with some modifications. Briefly, 1 mL of strain was inoculated into 5 mL of nutrient broth, followed by incubating overnight at 37 °C. The mixture comprised respective strains, drug, negative and positive controls with the S9 for testing in the presence of metabolic activation system. For testing without S9, 1 × phosphate buffer saline (PBS, pH 7.4) replaced the S9 mix. The obtained mixtures were added into the tube, mixed well and incubated at 37 °C for 20 min. Then, the top agar was melted and 2 mL of this melted top agar was added to each tube and gently mixed. […] The results were expressed as the number of revertant colonies per plate. The experiments were performed in triplicate.

[2] = system: CYP3A4; settings: cited from earlier work
[3] = system: S. typhimurium TA1535; settings: − S9; positive control, 5 μg/plate
Source text: as §1, §2, §3

[4] = system: S. typhimurium TA100; settings: − S9; positive control, 5 μg/plate
Source text: as §1, §2, §3

Question: With `Nc1ccc([N+](=O)[O-])cc1N` [4-nitro-o-phenylenediamine, reference compound] as the molecule, how does the “revertant colonies per plate, TA97” value [1] read?
Answer: The value was 803 ± 37 CFU.

Question: With `C=C[C@]1(C)C[C@@H](OC(=O)CSc2nc3ccc(N)cc3[nH]2)[C@]2(C)[C@H](C)CC[C@]3(CCC(=O)[C@H]32)[C@@H](C)[C@@H]1O` [14-O-((5-Amino-benzimidazole-2-yl)thioacetyl) mutilin] as the molecule, how does the IC50 ([2]; read-out: IC50 value, CYP3A4 inhibition) read?
Answer: Its IC50 is 1690 nM.

Question: Which IC50 ([2]; read-out: IC50, inhibition for CYP3A4) does the source give for `C=C[C@]1(C)C[C@@H](OC(=O)CS[C@@H]2CC[C@@H](N)C[C@H]2O)[C@]2(C)[C@H](C)CC[C@]3(CCC(=O)[C@H]32)[C@@H](C)[C@@H]1O` [Lefamulin] here?
Answer: Its IC50 is < 5000 nM.

Question: Which “revertant colonies per plate, TA1535” value [3] does the source give for `[N-]=[N+]=[N-].[Na+]` [sodium azide, reference compound] here?
Answer: Its value is 774 ± 20 CFU.

Question: And the “revertant colonies per plate, TA100” value [4]?
Answer: Its value is 984 ± 59 CFU.
